In patent publication US20130040882A1, “USE OF FIBROBLAST GROWTH FACTOR FRAGMENTS” (NOVARTIS AG, priority 2003, published 2013):
Values joined by “and” are separate entries in the source; they are usually repeats but may differ in a detail not shown here. Identical values can stand only once.

Assays:
uterine gene expression = test: Ranking of drug activity according to uterine GEP (GEP scoring axis, PCA; estrogenic potency score); type: in vivo, cynomolgus monkeys (Macaca fascicularis)
Description: To define a reference axis representing the desired pharmacological/toxicological action, we used a priori knowledge of 2 groups representing or approximating the extremes of the condition under study. These consisted of the OVX group (OVX untreated animals representing the one extreme) and OVX+estradiol (OVX animals treated with estradiol, an agent know to exercise a well-defined action, representing the other extreme). These two groups were used to quantitatively scale the axis. Other compounds were then positioned on this axis whereby the drugs could be ranked with regard to specific aspects of a pharmacological/toxicological action.
Generally, the data derived from an individual microarray, proteomic, or metabolite profiling experiment can be considered as a fingerprint. […] Thus, selection and elimination of the appropriate features is an important aspect of this methodology and the quantitative nature of this approach depends on the features used to define the axis of drug action.
In the case of a well-defined condition, it is possible to invoke a priori knowledge on the selection of features. If the molecular biology of the specific drug action is known, the features (e.g. genes, metabolites) to be used for the definition of the axis can be defined a priori. In the case of a less-well-defined condition, it is possible to use univariate filters (in this case, gene intensity >50, ≧1.5-fold change in expression vs. controls [OVX], and statistical significance and statistical methods to identify and exclude non-informative features.
Issues of transformation, centering (variable-wise), and scaling of the data were considered. In the case of microarrays, the data were log10-transformed and probe set-wise centered. Generally, no scaling was applied. When using only a small number of biologically identified features, these were scaled to unit variance.
To calculate the axis of drug action, a principal component axis (PCA) was performed using only the 2 treatment groups that were at the extremes (the untreated OVX animals vs. the estrodiol-treated OVX animals). Massart D L et al., Handbook for Chemometrics and Qualimetrics, Part a. (Elsevier; 1997); Jolliffe I T. Principal Component Analysis. 2nd Edition (Springer; New York, N.Y., 2002). Only 1 principal component (PC) was calculated, which was a weighted linear combination of all features in the input data pointing in the direction of maximum variance. The weights of the probe sets in this linear combination were called “loadings” and their absolute value is a measure of their importance in explaining the difference between the 2 groups. Every measurement in the experiment (e.g. microarray) could then be represented by its coordinate (score) on the PC. Alternatively, to obtain an even better separation between the groups, the PLS-DA (Partial-Least-Squares Discriminate Analysis) method with a 0/1 dummy variable as response vector was used. […] Massart D L et al., Handbook of Chemometrics and Qualimetrics, Part b. (Elsevier; 1997). The next step was identification of the features that were important for the definition of the axis. This was based on the magnitude of their loadings and their statistical significance using error estimates based on cross-validation and/or normal probability plots of the loadings. Hunter W G & Hunter J S. Statistics for Experimenters: an Introduction to Design, Data Analysis, and Model Building. 1st Edition (Wiley; 1978). This enabled calculation of a new PCA model using only the important features.
If a pharmacological or toxicological action affected multiple biochemical pathways that were represented by grossly different numbers of features in the measurement, block scaling was used. Eriksson L et al., Multi-and Megavariate Data Analysis-Principles and Applications. (Umetrics Academy; 2001). This attributed the same influence to all pathways (groups of features) in the calculation of the PCA model. […]

[1] = Salmon calcitonin/PTS893 monkey study: in vivo examinations (mortality, food consumption, clinical observations, body weight); set-up: species or system cynomolgus monkeys (Macaca fascicularis); conditions: males
Method: Solvent was used as vehicle for the control group.
The animals used in this analysis were cynomolgus monkeys (Macaca fascicularis), supplied by Centre de Recherches Primatologiques, Port Louis, Mauritius. Two animals were used per group and sex. […] Animals were examined daily for mortality, food consumption and clinical observations. Body weight was recorded once per week.
In vivo examinations. No significant histopathological changes were observed.

[2] = 123 genes thought to have a role in uterine function
[3] = 225 genes, statistically significant >1.5-fold changes
[4] = 673 genes, >1.5-fold change disregarding statistical significance

Compound: CC/C(=C(\c1ccccc1)c1ccc(OCCN(C)C)cc1)c1ccccc1 [tamoxifen]
- Estrogenic score (GEP score; OVX 0, estradiol 100) (uterine gene expression; [2]): 69
- Estrogenic score (GEP score; OVX 0, estradiol 100) (uterine gene expression; [3]): 59
- Estrogenic score (GEP score; OVX 0, estradiol 100) (uterine gene expression; [4]): 71

Compound: Leu8, Asp10, Lysll, A1a16, G1n18, Thr33, A1a34 human PTH 1-34 [PTS893, Leu8, Asp10, Lysll, A1a16, G1n18, Thr33, A1a34 human PTH 1-34 [hPTH(1-34)]]
- Food Consumption, Avg., Both animals ([1]; average of both animals of the group): 89.6
- Food Consumption, Avg. ([1]; average per individual animal): 87.5 and 91.7
- Food Consumption, Day 1 ([1]; day 1 of SC dosing, individual animals): 100
- Food Consumption, Day 2 ([1]; day 2 of SC dosing, individual animals): 100
- Food Consumption, Day 3 ([1]; day 3 of SC dosing, individual animals): 100
- Food Consumption, Day 4 ([1]; day 4 of SC dosing, individual animals): 100
- Food Consumption, Day 5 ([1]; day 5 of SC dosing, individual animals): 100
- Food Consumption, Day 6 ([1]; day 6 of SC dosing, individual animals): 100
- Food Consumption, Day 7 ([1]; day 7 of SC dosing, individual animals): 100
- Food Consumption, Day 8 ([1]; day 8 of SC dosing, individual animals): 100
- Food Consumption, Day 9 ([1]; day 9 of SC dosing, individual animals): 100
- Food Consumption, Day 10 ([1]; day 10 of SC dosing, individual animals): 100
- Food Consumption, Day 11 ([1]; day 11 of SC dosing, individual animals): 100
- Food Consumption, Day 12 ([1]; day 12 of SC dosing, individual animals): 100
- Food Consumption, Day 13 ([1]; day 13 of SC dosing, individual animals): 50 and 100
- Food Consumption, Day 14 ([1]; day 14 of SC dosing, individual animals): 75 and 100
- Food Consumption, Day −1 ([1]; day −1 (before dosing), individual animals): 100
- Food Consumption, Day −2 ([1]; day −2 (before dosing), individual animals): 75 and 100
- Food Consumption, Day −3 ([1]; day −3 (before dosing), individual animals): 100
- Food Consumption, Day −4 ([1]; day −4 (before dosing), individual animals): 100
- Food Consumption, Day −5 ([1]; day −5 (before dosing), individual animals): 100
- Food Consumption, Day −6 ([1]; day −6 (before dosing), individual animals): 50

Compound: O=C(c1ccc(OCCN2CCCCC2)cc1)c1c(-c2ccc(O)cc2)sc2cc(O)ccc12 [raloxifene]
- Estrogenic score (GEP score; OVX 0, estradiol 100) (uterine gene expression; [2]): 20
- Estrogenic score (GEP score; OVX 0, estradiol 100) (uterine gene expression; [3]): 23
- Estrogenic score (GEP score; OVX 0, estradiol 100) (uterine gene expression; [4]): 34
- Estrogenic scores in specific gene groups (categories) (uterine gene expression; subanalysis per gene class): −11 to 32
